US9169315B2, “Heparin cofactor II fragments with anti-inflammatory and anti-coagulant activity” (XIMMUNE AB, priority 2009, dated 2015)
Where two headings read alike, the source gives them in different places. No end group written: not given here.

Assays:
human blood = settings: corresponding number for LL-37 (Malmsten et al., in manuscript); cited from earlier work
S. aureus = type: cell-based, Staphylococcus aureus
Experimental: (§1) MIC assay was carried out by a microtiter broth dilution method as previously described in the NCSLA guidelines (Wiegand, I., Hilpert, K. & Hancock, R. E. Agar and broth dilution methods to determine the minimal inhibitory concentration (MIC) of antimicrobial substances. Nat Protoc 3, 163-175 (2008)). In brief, fresh overnight colonies were suspended to a turbidity of 0.5 units and further diluted in Mueller-Hinton broth (Becton Dickinson). For determination of MIC, peptides were dissolved in water at concentration 10 times higher than the required range by serial dilutions from a stock solution. Ten μl of each concentration was added to each corresponding well of a 96-well microtiter plate (polypropylene, Costar Corp.) and 90 μl of bacteria (1×10^5) in MH medium added. The plate was incubated at 37° C. for 16-18 h. MIC was taken as the lowest concentration where no visual growth of bacteria was detected.

P. aeruginosa = type: cell-based, Pseudomonas aeruginosa
Experimental: as §1

E. faecalis = assay: MIC, microtiter broth dilution; type: cell-based; settings: E. faecalis Clinical isolate 2374
Experimental: as §1

S. pneumoniae = type: cell-based
Experimental: as §1

S. pyogenes = type: cell-based; settings: S. pyogenes AP1
Experimental: as §1

E. coli = type: cell-based, Escherichia coli
Experimental: as §1

In the case of `CC[C@H](C)[C@H](NC(=O)[C@H](CCCCN)NC(=O)[C@H](CCC(=O)O)NC(=O)[C@H](CCCCN)NC(=O)[C@H](CO)NC(=O)[C@H](CCCCN)NC(=O)[C@H](CCCNC(=N)N)NC(=O)[C@H](Cc1ccccc1)NC(=O)[C@H](Cc1ccccc1)NC(=O)[C@H](CC(=O)O)NC(=O)CNC(=O)[C@H](CC(C)C)NC(=O)[C@@H](N)CC(C)C)C(=O)NCC(=O)N[C@@H](CCCCN)C(=O)N[C@@H](CCC(=O)O)C(=O)N[C@@H](Cc1ccccc1)C(=O)N[C@@H](CCCCN)C(=O)N[C@@H](CCCNC(=N)N)C(=O)N[C@H](C(=O)N[C@H](C(=O)N[C@@H](CCC(N)=O)C(=O)N[C@@H](CCCNC(=N)N)C(=O)N[C@H](C(=O)N[C@@H](CCCCN)C(=O)N[C@@H](CC(=O)O)C(=O)N[C@@H](Cc1ccccc1)C(=O)N[C@@H](CC(C)C)C(=O)N[C@@H](CCCNC(=N)N)C(=O)N[C@@H](CC(N)=O)C(=O)N[C@@H](CC(C)C)C(=O)N[C@H](C(=O)N1CCC[C@H]1C(=O)N[C@@H](CCCNC(=N)N)C(=O)N[C@H](C(=O)N[C@@H](CCC(=O)O)C(=O)N[C@@H](CO)C(=O)O)[C@@H](C)O)C(C)C)[C@@H](C)CC)C(C)C)[C@@H](C)CC` [LL-37], the “Accompanying hemolysis in infected human blood” value (human blood) is listed as roughly 8%.

“ILRWPWWPWRRK-NH2 [Omiganan, reference compound]” gave an MIC (S. aureus; S. aureus ATCC 29213) of 10 µM, an MIC (S. aureus; S. aureus Clinical isolate 1086) of 10 µM and an MIC (S. aureus; S. aureus Clinical isolate 1088) of 20 µM. The MIC (S. aureus; S. aureus Clinical isolate 1090) was 80 µM, the MIC (S. aureus; S. aureus Clinical isolate 14312) was 20 µM and the MIC (S. aureus; S. aureus Clinical isolate 16065) was 5 µM. It also gave an MIC (P. aeruginosa; P. aeruginosa ATCC 27853) of 160 µM, an MIC (P. aeruginosa; P. aeruginosa Clinical isolate 10.5) of 40 µM and an MIC (P. aeruginosa; P. aeruginosa Clinical isolate 13.2) of 40 µM. It also gave an MIC (P. aeruginosa; P. aeruginosa Clinical isolate 23.1) of 40 µM, an MIC (P. aeruginosa; P. aeruginosa Clinical isolate 27.1) greater than 160 µM and an MIC (P. aeruginosa; P. aeruginosa Clinical isolate 51.1) of 80 µM. The MIC (P. aeruginosa; P. aeruginosa Clinical isolate 62.1) was 20 µM, the MIC (P. aeruginosa; P. aeruginosa Clinical isolate 15159) was 20 µM and the MIC (P. aeruginosa; P. aeruginosa Clinical isolate 18488) was 20 µM. The MIC (E. faecalis) was 160 µM, the MIC (S. pneumoniae; S. pneumoniae Clinical isolate I-95) was 1.25 µM and the MIC (S. pneumoniae; S. pneumoniae Clinical isolate I-104) was 160 µM. It also gave an MIC (S. pneumoniae; S. pneumoniae Clinical isolate PJ1354) of 10 µM, an MIC (S. pneumoniae; S. pneumoniae D39) of 5 µM and an MIC (S. pneumoniae; S. pneumoniae TIGR4) of 2.5 µM. For the same compound, the MIC (S. pyogenes) was 5 µM, the MIC (E. coli) was 20 µM and the MIC (E. coli; E. coli Clinical isolate 47.1) was 20 µM. It also gave an MIC (E. coli; E. coli Clinical isolate 49.1) of 10 µM.
